According to patent US11186572B2, “Bacterial glutaminyl cyclases and inhibitors thereof for use in the treatment of periodontitis” (Fraunhofer-Gesellschaft zur Forderung der Angewandten …, priority 2016, dated 2021):
In brackets after ≈: the same amount, converted by molar mass. Entries after “also recorded” stand apart in the source; their conditions may differ. Like-named read-outs stand apart in the source and are kept apart here.

Legend:
[1] = system: P. gingivalis M5-1-2; test: MIC/MBC, cultivation in 2-fold dilution series; assay type: cell-based; details: Porphyromonas gingivalis, M512, P.g. M5-1-2; for MIC: lowest concentration without visible growth (turbidity); for MBC: no growth of subcultivation or reduction by 99.9%
Description: (§1) Bacteria expressing PgQC, TfQC and PiQC, namely P. gingivalis ATCC 33277, P. gingivalis M5-1-2, T. forsythia ATCC 42077, and P. intermedia ATCC 25611 were cultivated in the presence of compounds MWT-S-00275, MWT-S-00431, MWT-S-00441 and doxycycline in 2-fold dilution series. […]

[2] = system: T. forsythia ATCC 42077; test: MIC/MBC, cultivation in 2-fold dilution series; assay type: cell-based; details: Tannerella forsythia, ATCC42077, T.f. ATCC 42077; for MIC: lowest concentration without visible growth (turbidity); for MBC: no growth of subcultivation or reduction by 99.9%
Description: as §1

[3] = system: P. gingivalis ATCC 33277; test: MIC/MBC, cultivation in 2-fold dilution series; assay type: cell-based; details: Porphyromonas gingivalis, ATCC33277, P.g. ATCC 33277; for MIC: lowest concentration without visible growth (turbidity); for MBC: no growth of subcultivation or reduction by 99.9%
Description: as §1

[4] = system: P. intermedia ATCC 25611; test: MIC/MBC, cultivation in 2-fold dilution series; assay type: cell-based; details: Prevotella intermedia, ATCC25611, P.i. ATCC 25611; for MIC: lowest concentration without visible growth (turbidity); for MBC: no growth of subcultivation or reduction by 99.9%
Description: as §1

[5] = system: bacterial QC (PgQC, PiQC, TfQC); test: Inhibition of bacterial QC by metal chelators (fluorometric activity assay); assay type: biochemical, P. gingivalis, P. intermedia, T. forsythia; details: 250 μM H-Gln-AMC, increasing chelator concentrations, approx. 5 nM bacQC, 30° C.; all three bacterial QC (FIG. 7)
Description: The fluorometrically activity assay was carried out as described above, except the presence of 1% (v/v) DMSO in the case of 1,10-phenanthroline or dipicolinic acid. Finally the residual bacQC activity was determined at steady state whereas bacQC without Chelators and +/−1% DMSO served as positive control.
The reaction was initiated by adding approximately 5 nM bacQC. Black bars indicate residual PgQC activity, striped bars represent residual PiQC activity, and white bars display residual TfQC activity. All determinations were carried out at 30° C. as described above.

[6] = target: T1, PgQC (Porphyromonas gingivalis, UniProt Q7MT37); test: biochemical; parameters: species or system P. gingivalis
T1 construct: Ki; RA (average residual QC activity of PgQC); other: c = 1 μM; other: c = 1.5 μM; other: c = 10 μM; other: c = 100 μM; other: c = 12 μM; RA; fused on or other part: N-terminal His tag from pET28a(+), cleaved off by thrombin before the enzymatic characterisation
Description: The assay consists of varying concentration of the fluorogenic substrate and 0.5 U pyroglutaminyl aminopeptidase in 50 mM Tris-HCl, 50 mM NaCl at pH 8.0. After 10 minute incubation time at 30° C. reaction was initiated by addition of bacQC to a final volume of 125 μl reaction mixture. […] All determinations were carried out in 96 well microtiter plates (Fisher Scientific) at 30° C. using the FluoStar Optima (BMG Labtech).
For inhibitor testing, the sample composition was the same as described above, except for the addition of the putative inhibitory compound. […] (∘) represents reaction without inhibitor. Determinations were carried out in 50 mM Tris-HCl, 50 mM NaCl pH 8.0 and 1% (v/v) DMSO at 30° C.
RA refers to the average residual QC activity of PgQC measured in the presence of a concentration c of the respective compound. Ki refers to the average Ki values measured as described above, and Std(Ki) refers to the standard deviation of Ki.

[7] = read-out: RA (average residual QC activity of PgQC)
[8] = inhibition of PgQC, H-Gln-AMC, 50 mM Tris-HCl, 50 mM NaCl pH 8.0, 30° C., read-out: Ki (average)

Compound: C[C@H]1c2cccc(O)c2C(=O)C2=C(O)[C@]3(O)C(=O)C(C(N)=O)=C(O)[C@@H](N(C)C)[C@@H]3[C@@H](O)[C@@H]21 [Doxy, Doxycycline, reference compound]
- MIC [1]: ≤ 3130 mg/L
- MIC [2]: ≤ 3130 mg/L
- MBC [2]: 6250 mg/L (≈ 14.1 mM)
- MIC [3]: ≤ 3130 mg/L
- MBC [3]: 50000 mg/L (≈ 113 mM)
- MIC [4]: ≤ 3130 mg/L
- MBC [4]: 12500 mg/L (≈ 28.1 mM)

Compound: O=C(O)CN(CCN(CC(=O)O)CC(=O)O)CC(=O)O [EDTA]
- inhibitory effect on bacQC activity (residual activity) [5]: does not influence bacQC activity

Compound: CC1(C)c2nc[nH]c2CCN1Cc1cc(F)c(F)c(F)c1 [MWT-S-00275, 4,4-Dimethyl-5-[(3,4,5-trifluorophenyl)methyl]-6,7-dihydro-3H-imidazo[4,5-c]pyridine]
- Ki ([6]; Ki (average), inhibition of PgQC, H-Gln-AMC, 50 mM Tris-HCl, 50 mM NaCl pH 8.0, 30° C.): 0.143 µM
- remaining activity at 1 µM [6, 7]: 22%
- MIC [1]: 500 mg/L (≈ 1.69 mM)
- MBC [1]: 1000 mg/L (≈ 3.39 mM)
- MIC [2]: 250 mg/L (≈ 0.847 mM)
- MBC [2]: 250 mg/L (≈ 0.847 mM)
- MIC [3]: 500 mg/L (≈ 1.69 mM)
- MBC [3]: 1000 mg/L (≈ 3.39 mM)
- MIC [4]: 500 mg/L (≈ 1.69 mM)
- MBC [4]: 500 mg/L (≈ 1.69 mM)

Compound: O=C(c1cc(Cl)cc(Cl)c1)N1CCc2[nH]cnc2C1 [MWT-S-00431, (3,5-Dichlorophenyl)(1,4,6,7-tetrahydro-5H-imidazo[4,5-c]pyridin-5-yl)methanone]
- Ki ([6]; Ki, Table 3 fit, competitive inhibition, 1% (v/v) DMSO, pH 8.0, 30° C.): 0.104 µM
- Ki ([6]; Ki, exemplary determination (FIG. 4), 1% (v/v) DMSO, pH 8.0, 30° C.): 0.104 ± 0.00331 µM
- Ki [6, 8]: 0.1 µM
- remaining activity at 10 µM [6, 7]: 3%
- MIC [1]: 1000 mg/L (≈ 3.38 mM)
- MBC [1]: 2000 mg/L (≈ 6.75 mM)
- MIC [2]: 1000 mg/L (≈ 3.38 mM)
- MBC [2]: 2000 mg/L (≈ 6.75 mM)
- MIC [3]: 1000 mg/L (≈ 3.38 mM)
- MBC [3]: 2000 mg/L (≈ 6.75 mM)
- MIC [4]: 125 mg/L (≈ 0.422 mM)
- MBC [4]: 500 mg/L (≈ 1.69 mM)

Compound: O=C(c1cc(F)c(F)c(F)c1)N1CCc2[nH]cnc2C1 [MWT-S-00435, (1,4,6,7-Tetrahydro-5H-imidazo[4,5-c]pyridin-5-yl)(3,4,5-trifluoro-phenyl)methanone]
- Ki [6, 8]: 0.904 µM
- remaining activity at 10 µM [6, 7]: 16%

Compound: COc1cc(C(=O)N2CCc3[nH]cnc3C2)ccc1F [MWT-S-00436, (4-Fluoro-3-methoxyphenyl)(1,4,6,7-tetrahydro-5H-imidazo[4,5-c]pyridin-5-yl)methanone]
- Ki [6, 8]: 1.24 µM
- remaining activity at 100 µM [6, 7]: 3%

Compound: O=C(c1ccc2ccccc2c1)N1CCc2[nH]cnc2C1 [MWT-S-00440, Naphthalen-2-yl(1,4,6,7-tetrahydro-5H-imidazo[4,5-c]pyridin-5-yl)methanone]
- Ki [6, 8]: 0.126 µM
- remaining activity at 10 µM [6, 7]: 4%

Compound: COc1cc(Cl)cc(C(=O)N2CCc3[nH]cnc3C2)c1 [MWT-S-00441, (3-Chloro-5-methoxyphenyl)(1,4,6,7-tetrahydro-5H-imidazo[4,5-c]pyridin-5-yl)methanone]
- Ki [6, 8]: 0.087 µM
- remaining activity at 1 µM [6, 7]: 17%
- MIC [1]: 1000 mg/L (≈ 3.43 mM)
- MBC [1]: > 2000 mg/L
- MIC [2]: 2000 mg/L (≈ 6.86 mM)
- MBC [2]: 2000 mg/L (≈ 6.86 mM)
- MIC [3]: 1000 mg/L (≈ 3.43 mM)
- MBC [3]: 2000 mg/L (≈ 6.86 mM)
- MIC [4]: 63 mg/L (≈ 0.216 mM)
- MBC [4]: 63 mg/L (≈ 0.216 mM)

Compound: O=C(O)c1cccc(C(=O)O)n1 [dipicolinic acid]
- inhibitory effect on bacQC activity (residual activity) [5]: strong inhibitory activity

Compound: c1cnc2c(c1)ccc1cccnc12 [phenanthroline, 1,10-phenanthroline]
- inhibitory effect on bacQC activity (residual activity) [5]: strong inhibitory activity; also recorded: inhibited QC activity already at low mM range
